One data set deals with T1, B/Malaysia/2506/2004 NA.
T1 construct: recombinant NA secreted from High Five insect cells (baculovirus); N-terminal VASP tetramerization domain
It is filed as biochemical, Influenza B virus.

In another data set the target is WSEIV NA (Wuhan spiny eel influenza virus, UniProt A0A2P1GNP4). It is filed as biochemical.
Data set [1] concerns CC(=O)N[C@H]1[C@H]([C@H](O)[C@H](O)CO)O[C@](Oc2ccc3c(C)cc(=O)oc3c2)(C(=O)O)C[C@@H]1O. The data set is described as follows: purified protein. Conditions: 37.0 °C.

With `CC(=O)N[C@H]1[C@H]([C@H](O)[C@H](O)CO)O[C@](Oc2ccc3c(C)cc(=O)oc3c2)(C(=O)O)C[C@@H]1O` [MUNANA, 4-methylumbelli-feryl N-acetyl-α-D-neuraminic acid], the Michaelis constant (Km) with B/Malaysia/2506/2004 NA was found to be 137 ± 23.7 µM. In the case of `CCOC(=O)C1=C[C@@H](OC(CC)CC)[C@H](NC(C)=O)[C@@H](N)C1` [oseltamivir], the dose-dependent inhibition entry on WSEIV NA is reported as “The WSEIV NA was sensitive to oseltamivir”. For the compound “WSEIV NA (Wuhan spiny eel influenza virus)”, the Michaelis-Menten constant (Km) in data set [1] came to 118.5 ± 18.3 µM.

Source of the values: article PMC8546056 (Nature Communications, 2021).
